In patent EP4800015A1, “AZABICYCLO DERIVATIVE AND PREPARATION METHOD THEREFOR, AND USE” (Zhejiang Hisun Pharmaceutical Co., Ltd., priority 2023, dated 2025):
pIC50: −log10 of the molar value.

Legend:
SW48 cells = experiment: Inhibition of SW48 cell proliferation (CellTiter-Glo); type: cell-based; conditions: Homo sapiens; SW48 cells (MSI-H), 120 hours
Summary of the method: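 SW48 (MSI-H) cells in L-15 with 10% FBS were seeded at 500 per well, cultured overnight at 37 °C, then exposed to compound at final concentrations of 10000 nM to 1.52 nM for 120 h. Viability was read by CellTiter-Glo luminescence, with inhibition relative to 0.1% DMSO. IC50 from nonlinear regression of log concentration versus inhibition.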

recombinant human WRN = molecular target: T1, recombinant human WRN (Homo sapiens, UniProt Q14191); experiment: Inhibition of WRN enzyme activity (ATPase), ADP-Glo Kinase Assay; type: biochemical; conditions: WRN protein 5 nM, Flap 0.1 nM, ATP 30 µM; read-out: IC50
T1 construct: purchased BPS 101264
T1 sequence (Q14191 whole entry): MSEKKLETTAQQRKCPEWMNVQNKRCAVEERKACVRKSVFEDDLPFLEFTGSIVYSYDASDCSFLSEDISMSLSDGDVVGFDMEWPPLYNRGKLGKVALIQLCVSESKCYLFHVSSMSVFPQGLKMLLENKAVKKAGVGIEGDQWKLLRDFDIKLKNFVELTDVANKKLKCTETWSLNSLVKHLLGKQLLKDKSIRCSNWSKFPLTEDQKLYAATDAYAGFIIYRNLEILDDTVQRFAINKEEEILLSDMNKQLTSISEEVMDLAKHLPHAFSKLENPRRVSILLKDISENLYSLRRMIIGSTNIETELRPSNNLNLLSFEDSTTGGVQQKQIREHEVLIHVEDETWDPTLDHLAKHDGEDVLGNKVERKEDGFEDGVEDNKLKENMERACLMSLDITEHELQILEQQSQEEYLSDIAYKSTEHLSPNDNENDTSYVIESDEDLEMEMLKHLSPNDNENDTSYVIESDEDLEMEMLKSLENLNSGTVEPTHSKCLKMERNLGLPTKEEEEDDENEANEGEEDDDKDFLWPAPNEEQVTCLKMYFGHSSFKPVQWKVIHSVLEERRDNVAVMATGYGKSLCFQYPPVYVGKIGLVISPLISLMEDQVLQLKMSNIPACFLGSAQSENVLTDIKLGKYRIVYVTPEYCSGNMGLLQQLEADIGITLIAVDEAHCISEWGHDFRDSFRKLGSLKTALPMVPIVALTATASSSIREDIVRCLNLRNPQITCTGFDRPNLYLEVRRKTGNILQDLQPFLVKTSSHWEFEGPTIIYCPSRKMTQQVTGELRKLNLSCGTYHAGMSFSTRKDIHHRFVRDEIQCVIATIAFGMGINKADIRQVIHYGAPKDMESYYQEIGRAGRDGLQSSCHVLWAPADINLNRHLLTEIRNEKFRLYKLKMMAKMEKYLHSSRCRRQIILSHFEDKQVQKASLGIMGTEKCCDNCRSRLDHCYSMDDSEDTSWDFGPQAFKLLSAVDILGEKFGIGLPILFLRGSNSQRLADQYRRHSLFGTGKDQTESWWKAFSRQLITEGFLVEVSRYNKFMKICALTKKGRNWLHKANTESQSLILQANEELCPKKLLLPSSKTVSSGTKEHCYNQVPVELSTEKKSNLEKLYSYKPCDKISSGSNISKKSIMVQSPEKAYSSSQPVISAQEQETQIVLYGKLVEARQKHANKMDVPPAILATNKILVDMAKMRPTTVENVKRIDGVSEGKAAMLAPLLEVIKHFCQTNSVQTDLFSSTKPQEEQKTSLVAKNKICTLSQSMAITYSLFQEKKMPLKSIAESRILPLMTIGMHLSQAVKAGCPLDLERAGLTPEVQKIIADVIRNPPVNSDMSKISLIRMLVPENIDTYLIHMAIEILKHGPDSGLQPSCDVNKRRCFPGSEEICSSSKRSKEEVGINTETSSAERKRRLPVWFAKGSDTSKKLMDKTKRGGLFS
Summary of the method: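 Recombinant human WRN (5 nM) was preincubated with compound (1000–0.004 nM) for 15 min at room temperature. Flap26 5'-flap DNA (0.1 nM) and 30 µM ATP were then added for 10 min in Tris pH 7.5, MgCl2, NaCl, BSA, Pluronic buffer. ADP was detected by ADP-Glo luminescence, and IC50 was obtained by nonlinear regression versus a 0.1% DMSO control.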

RL95-2 cells = experiment: Inhibition of RL95-2 cell proliferation (CellTiter-Glo); type: cell-based; conditions: Homo sapiens; RL95-2 cells (MSI-H), 120 hours
Summary of the method: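 RL95-2 (MSI-H) cells, 500/well in DMEM/F12 with 10% FBS, adhered overnight, then treated 120 h at 37 °C, 5% CO2 with compound at final 1.52-10000 nM. Viability by CellTiter-Glo luminescence. Inhibition relative to 0.1% DMSO control; IC50 from nonlinear regression of log concentration versus inhibition.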

Row | pIC50 (SW48 cells) | pIC50 (recombinant human WRN) | SMILES | pIC50 (RL95-2 cells)
1 | 7.00 to 9.00 | 7.00 to 9.00 | CCc1c(N2CCN(C(=O)c3ncnc(C)c3O)CC2)c(=O)n2nc(-c3nc4ccccc4s3)nc2n1CC(=O)Nc1ccc(C(F)(F)F)cc1Cl [Example 133, 2-(2-(benzo[d]thiazol-2-yl)-5-ethyl-6-(4-(5-hydroxy-6-methylpyrimidine-4-carbonyl)piperazin-1-yl)-7-oxo-[1,2,4]triazolo[1,5-a]pyrimidin-4(7H)-yl)-N-(2-chloro-4-(trifluoromethyl)phenyl)acetamide] | 7.00 to 9.00
2 | 7.00 to 9.00 | 7.00 to 9.00 | CCc1c(N2CCN(C(=O)c3ncnc(C)c3O)CC2)c(=O)n2nc(-c3cc4c(s3)CCNC4)nc2n1CC(=O)Nc1ccc(C(F)(F)F)cc1Cl [Example 134, N-(2-chloro-4-(trifluoromethyl)phenyl)-2-(5-ethyl-6-(4-(5-hydroxy-6-methylpyrimidine-4-carbonyl)piperazin-1-yl)-7-oxo-2-(4,5,6,7-tetrahydrothieno[3,2-c]pyridin-2-yl)-[1,2,4]triazolo[1,5-a]pyrimidin-4(7H)-yl)acetamide] | 7.00 to 9.00
3 | 7.00 to 9.00 | 7.00 to 9.00 | CCc1c(N2CCN(C(=O)c3ncnc(C)c3O)CC2)c(=O)n2nc(-c3ccc4nc(N)oc4c3)nc2n1CC(=O)Nc1ccc(C(F)(F)F)cc1Cl [Example 140, 2-(2-(2-aminobenzo[d]oxazol-6-yl)-5-ethyl-6-(4-(5-hydroxy-6-methylpyrimidine-4-carbonyl)piperazin-1-yl)-7-oxo-[1,2,4]triazolo[1,5-a]pyrimidin-4(7H)-yl)-N-(2-chloro-4-(trifluoromethyl)phenyl)acetamide] | 7.00 to 9.00
4 | 7.00 to 9.00 | 7.00 to 9.00 | CCc1c(N2CCN(C(=O)c3ncnc(C)c3O)CC2)c(=O)n2nc(-c3ccc4c(c3)CNCCO4)nc2n1CC(=O)Nc1ccc(C(F)(F)F)cc1Cl [Example 142, N-(2-chloro-4-(trifluoromethyl)phenyl)-2-(5-ethyl-6-(4-(5-hydroxy-6-methylpyrimidine-4-carbonyl)piperazin-1-yl)-7-oxo-2-(2,3,4,5-tetrahydrobenzo[f][1,4]oxazepin-7-yl)-[1,2,4]triazolo[1,5-a]pyrimidin-4(7H)-yl)acetamide] | 7.00 to 9.00
5 | 7.00 to 9.00 | 7.00 to 9.00 | [2H]C([2H])([2H])Sc1ccc(NC(=O)Cn2c(CC)c(N3CCN(C(=O)c4ncnc(C)c4O)CC3)c(=O)n3nc(-c4ccc5c(c4)CCO5)nc23)c(Cl)c1 [Example 147, N-(2-chloro-4-((methyl-d3)thio)phenyl)-2-(2-(2,3-dihydrobenzofuran-5-yl)-5-ethyl-6-(4-(5-hydroxy-6-methylpyrimidine-4-carbonyl)piperazin-1-yl)-7-oxo-[1,2,4]triazolo[1,5-a]pyrimidin-4(7H)-yl)acetamide] | 7.00 to 9.00
6 | 7.00 to 9.00 | 7.00 to 9.00 | CCc1c(C2=CCN(C(=O)c3ncnc(C)c3O)CC2)c(=O)n2nc(-c3ccc4c(c3)CCO4)nc2n1CC(=O)Nc1ccc(C(F)(F)F)cc1Cl [Example 149, N-(2-chloro-4-(trifluoromethyl)phenyl)-2-(2-(2,3-dihydrobenzofuran-5-yl)-5-ethyl-6-(1-(5-hydroxy-6-methylpyrimidine-4-carbonyl)-1,2,3,6-tetrahydropyridin-4-yl)-7-oxo-[1,2,4]triazolo[1,5-a]pyrimidin-4(7H)-yl)acetamide] | 7.00 to 9.00
7 | 7.00 to 9.00 | 7.00 to 9.00 | CCc1c(N2CCN(C(=O)c3nc(C)ncc3O)CC2)c(=O)n2nc(-c3ccc4c(c3)CCO4)nc2n1CC(=O)Nc1ccc(C(F)(F)F)cc1Cl [Example 150, N-(2-chloro-4-(trifluoromethyl)phenyl)-2-(2-(2,3-dihydrobenzofuran-5-yl)-5-ethyl-6-(4-(5-hydroxy-2-methylpyrimidine-4-carbonyl)piperazin-1-yl)-7-oxo-[1,2,4]triazolo[1,5-a]pyrimidin-4(7H)-yl)acetamide] | 7.00 to 9.00
8 | 7.00 to 9.00 | 7.00 to 9.00 | CCc1c(N2CCN(C(=O)c3ncnc(C)c3O)CC2)c(=O)n2nc(-c3cc4cnccc4s3)nc2n1CC(=O)Nc1ccc(C(F)(F)F)cc1Cl [Example 153, N-(2-chloro-4-(trifluoromethyl)phenyl)-2-(5-ethyl-6-(4-(5-hydroxy-6-methylpyrimidine-4-carbonyl)piperazin-1-yl)-7-oxo-2-(thieno[3,2-c]pyridin-2-yl)-[1,2,4]triazolo[1,5-a]pyrimidin-4(7H)-yl)a cetamide] | 7.00 to 9.00
9 | 7.00 to 9.00 | 7.00 to 9.00 | CCc1c(N2CCN(C(=O)c3ncnc(C)c3O)CC2)c(=O)n2nc(-c3cccc4c3OCC4)nc2n1CC(=O)Nc1ccc(C(F)(F)F)cc1Cl [Example 154, N-(2-chloro-4-(trifluoromethyl)phenyl)-2-(2-(2,3-dihydrobenzofuran-7-yl)-5-ethyl-6-(4-(5-hydroxy-6-methylpyrimidine-4-carbonyl)piperazin-1-yl)-7-oxo-[1,2,4]triazolo[1,5-a]pyrimidin-4(7H)-yl)acetamide] | 7.00 to 9.00
10 | 7.00 to 9.00 | 7.00 to 9.00 | CCc1c(N2CCN(C(=O)c3ncnc(C)c3O)CC2)c(=O)n2nc(-c3ccc4cn[nH]c4c3)nc2n1CC(=O)Nc1ccc(C(F)(F)F)cc1Cl [Example 156, N-(2-chloro-4-(trifluoromethyl)phenyl)-2-(5-ethyl-6-(4-(5-hydroxy-6-methylpyrimidine-4-carbonyl)piperazin-1-yl)-2-(1H-indazol-6-yl)-7-oxo-[1,2,4]triazolo[1,5-a]pyrimidin-4(7H)-yl)acetamide] | 7.00 to 9.00
11 | 7.00 to 9.00 | 7.00 to 9.00 | CCc1c(N2CCN(C(=O)c3ncnc(C)c3O)CC2)c(=O)n2nc(-c3ccc4c(c3)NCCO4)nc2n1CC(=O)Nc1ccc(C(F)(F)F)cc1Cl [Example 157, N-(2-chloro-4-(trifluoromethyl)phenyl)-2-(2-(3,4-dihydro-2H-benzo[b][1,4]oxazin-6-yl)-5-ethyl-6-(4-(5-hydroxy-6-methylpyrimidine-4-carbonyl)piperazin-1-yl)-7-oxo-[1,2,4]triazolo[1,5-a]pyrimidin-4(7H)-yl)acetamide] | 7.00 to 9.00
12 | 7.00 to 9.00 | 7.00 to 9.00 | CCc1c(N2CCN(C(=O)c3ncnc(C)c3O)CC2)c(=O)n2nc(C3=CCCCOC3)nc2n1CC(=O)Nc1ccc(S(F)(F)(F)(F)F)cc1C [Example 158, 2-(5-ethyl-6-(4-(5-hydroxy-6-methylpyrimidine-4-carbonyl)piperazin-1-yl)-7-oxo-2-(2,5,6,7-tetra hydrooxepin-3-yl)-[1,2,4]triazolo[1,5-a]pyrimidin-4(7H)-yl)-N-(2-methyl-4-(pentafluoro-λ^6-sulfaneyl)phenyl)acetamide] | 7.00 to 9.00
13 | 7.00 to 9.00 | 7.00 to 9.00 | CCc1c(N2CCN(C(=O)c3ncccc3O)CC2)c(=O)n2nc(C3=CC4COCC4C3)nc2n1CC(=O)Nc1ccc(C(F)(F)F)cc1Cl (stereo not drawn) [Example 159, N-(2-chloro-4-(trifluoromethyl)phenyl)-2-(5-ethyl-6-(4-(3-hydroxypicolinoyl)piperazin-1-yl)-7-oxo-2-(3,3a,4,6a-tetrahydro-1H-cyclopenta[c]furan-5-yl)-[1,2,4]triazolo[1,5-a]pyrimidin-4(7H)-yl) acetamide] | 7.00 to 9.00
14 | 7.00 to 9.00 | 7.00 to 9.00 | CCc1c(N2CCN(C(=O)c3ncnc(C)c3O)CC2)c(=O)n2nc(C3=CC4COCC4C3)nc2n1CC(=O)Nc1ccc(C(F)(F)F)cc1Cl (stereo not drawn) [Example 161, N-(2-chloro-4-(trifluoromethyl)phenyl)-2-(5-ethyl-6-(4-(5-hydroxy-6-methylpyrimidine-4-carbonyl)piperazin-1-yl)-7-oxo-2-(3,3a,4,6a-tetrahydro-1H-cyclopenta[c]furan-5-yl)-[1,2,4]triazolo[1,5-a]pyrimidin-4(7H)-yl)acetamide] | 7.00 to 9.00
15 | 7.00 to 9.00 | 7.00 to 9.00 | CCc1c(N2CCN(C(=O)c3ncnc(C)c3O)CC2)c(=O)n2nc(-c3cnc4c(c3)CCO4)nc2n1CC(=O)Nc1ccc(C(F)(F)F)cc1Cl [Example 162, N-(2-chloro-4-(trifluoromethyl)phenyl)-2-(2-(2,3-dihydrofuro[2,3-b]pyridin-5-yl)-5-ethyl-6-(4-(5-hydroxy-6-methylpyrimidine-4-carbonyl)piperazin-1-yl)-7-oxo-[1,2,4]triazolo[1,5-a]pyrimidin-4 (7H)-yl)acetamide] | 7.00 to 9.00
16 | 7.00 to 9.00 | 7.00 to 9.00 | CCc1c(N2CCN(C(=O)c3ncnc(C)c3O)CC2)c(=O)n2nc(C3=CC4CC(OC)CC4C3)nc2n1CC(=O)Nc1ccc(C(F)(F)F)cc1Cl (stereo not drawn) [Example 163, N-(2-chloro-4-(trifluoromethyl)phenyl)-2-(5-ethyl-6-(4-(5-hydroxy-6-methylpyrimidine-4-carbonyl)piperazin-1-yl)-2-(5-methoxy-1,3a,4,5,6,6a-hexahydropentalen-2-yl)-7-oxo-[1,2,4]triazolo[1,5-a]pyrimidin-4(7H)-yl)acetamide] | 7.00 to 9.00
